Here are results for 17 compounds from paper PMC7155171, “Probing the Open Global Health Chemical Diversity Library for Multistage-Active Starting Points for Next-Generation Antimalarials” (ACS Infectious Diseases, 2020).

Like-named read-outs stand apart in the source and are kept apart here.

Data set [1] deals with HepG2-A16-CD81 hepatocytes. The experiment in a line: HepG2 cytotoxicity screening (CellTiter-Glo). Particulars: for IC50: HepG2-A16-CD81, read-out: HepG2 tox IC50; for HepG2 cytotoxicity 12pt dose response: Maximum inhibition (%): 12pt dose response.
Data set [2] concerns P. berghei liver stage (PbLuc). The experiment in a line: P. berghei luciferase liver stage (PbLuc) assay in HepG2-A16-CD81 hepatocytes. The data set is classed as cell-based, Plasmodium berghei. The note with it: Plasmodium berghei; for Emax: 12pt dose response, maximum inhibition.
The target in data set [3] is recombinant firefly luciferase (Photinus pyralis, UniProt P08659). The experiment in a line: biochemical. Particulars: read-out: rLuc IC50.
Data set [4] in a line: HepG2 cytotoxicity screening (CellTiter-Glo). The note with it: human, uninfected HepG2-A16-CD81 (EGFP) hepatocytes.
[5] abbreviates: HepG2-A16-CD81, 48 h, 48 h liver stage, HepG2-A16-CD81, read-out: Pbluc (EEF) IC50.
The mark [6] stands for this setting: HepG2-A16-CD81, 12pt dose response, read-out: PbLuc 12pt dose response: IC50.

Chain of recombinant firefly luciferase (P08659 whole entry): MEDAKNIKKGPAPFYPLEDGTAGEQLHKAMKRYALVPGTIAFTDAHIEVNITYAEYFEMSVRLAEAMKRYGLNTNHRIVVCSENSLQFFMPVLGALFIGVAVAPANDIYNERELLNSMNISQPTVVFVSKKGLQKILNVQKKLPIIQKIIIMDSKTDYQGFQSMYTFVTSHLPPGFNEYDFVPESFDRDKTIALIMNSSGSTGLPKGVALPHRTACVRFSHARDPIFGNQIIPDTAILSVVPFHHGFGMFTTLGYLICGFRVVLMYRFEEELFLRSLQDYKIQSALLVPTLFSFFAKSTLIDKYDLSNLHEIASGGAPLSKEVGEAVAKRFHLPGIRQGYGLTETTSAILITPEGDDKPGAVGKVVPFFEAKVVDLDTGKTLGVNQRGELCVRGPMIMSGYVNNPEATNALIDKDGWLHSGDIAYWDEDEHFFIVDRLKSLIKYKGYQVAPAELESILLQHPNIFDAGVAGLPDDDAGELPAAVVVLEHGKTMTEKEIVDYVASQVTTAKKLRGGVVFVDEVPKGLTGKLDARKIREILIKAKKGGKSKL

Consider `CCS(=O)(=O)N1CCc2ccc(NC(=O)Nc3cccc(C)c3)cc21` [DDD01025922], for which the figures for the IC50 in data set [1], in data set [2] (setting [5]) and in data set [3] were 16.6 µM, 3.66 µM and greater than 50 µM, respectively.

`CCS(=O)(=O)N1CCc2ccc(NC(=O)Nc3cccc(F)c3)cc21` [DDD01025926]: the values for the IC50 in data set [1], in data set [2] (setting [5]) and in data set [3] were 17.8 µM, 9.31 µM and greater than 25 µM, respectively.

Regarding `Cc1cnc(NC(=O)c2csc(NC3CCCC3)n2)s1` [DDD01026924], the IC50 in data set [1] is greater than 25 µM; in data set [2] (setting [5]) it was 8.33 µM; in data set [3], 24.8 µM.

Regarding `CCCc1cc(=O)[nH]c(-n2nc(C3CC3)cc2N)n1` [DDD01027468], the IC50 was 20.5 µM in data set [1], 4.69 µM in data set [2] (setting [5]) and greater than 25 µM in data set [3].

For `CC(C)c1cc(=O)[nH]c(-n2nc(C3CC3)cc2N)n1` [DDD01027469], the half-inhibitory concentration (IC50) is 18.9 µM in data set [1], 1.61 µM in data set [2] (setting [5]) and greater than 25 µM in data set [3].

Regarding `Cc1cc(C(=O)N2CCN(c3nc4c(C(C)C)cccc4s3)CC2)no1` [DDD01027513], the IC50 is greater than 25 µM in data set [1], 0.822 µM in data set [2] (setting [5]) and greater than 50 µM in data set [3].

Turning to `Cc1cc(C(=O)N2CCN(c3nc4c(C(C)C)cccc4s3)CC2)on1` [DDD01027654], the concentration for half-maximal inhibition (IC50) was greater than 25 µM in data set [1], 4 µM in data set [2] (setting [5]) and greater than 50 µM in data set [3].

Turning to `Cc1[nH]/c(=N\C(=O)c2csc(NC3CCCC3)n2)sc1C` [DDD01035522], the IC50 in data set [1] was 11 µM; in data set [2] (setting [5]), 0.832 µM; in data set [3], 44.4 µM.

Regarding `CCS(=O)(=O)N1CCc2ccc(NC(=O)Nc3cccc(SC)c3)cc21` [DDD01035781], the IC50 was 3.39 µM in data set [1], 1.38 µM in data set [2] (setting [5]) and greater than 25 µM in data set [3].

For `Fc1ccc(CN2CCCC(c3cc4ncccc4[nH]3)C2)cc1` (centres unmarked) [DDD01057419], the IC50 was greater than 25 µM in data set [1], 8.45 µM in data set [2] (setting [5]) and greater than 25 µM in data set [3].

As for `COc1ccccc1C1CCN(c2ccc3cc[nH]c3n2)CC1` [UCSD-0836069], in data set [4], 31.8 µM corresponded to half-maximal inhibition (IC50) and the inhibition at 2 µM is 5.11%. Further, in data set [1], the “HepG2 cytotoxicity 12pt dose response: Maximum inhibition (%)” value was 60.6%. In addition, the IC50 in data set [2] (setting [6]) stood at 3.52 µM. The same compound came in with a maximal effect (Emax) in data set [2] (HepG2-A16-CD81, 48 h) of 93.5%.

With `Cc1n[nH]c(CN2CCN(c3ncnc4scc(C)c34)CC2)c1Cl` [UCSD-0836325], in data set [4], the 50% inhibitory concentration (IC50) is greater than 16.6 µM and the inhibition at 2 µM stood at 27.1%. Moreover, in data set [1], the “HepG2 cytotoxicity 12pt dose response: Maximum inhibition (%)” value was found to be 66.1%. Further, the IC50 in data set [2] (setting [6]) was 4.49 µM. The same compound registered an Emax in data set [2] (HepG2-A16-CD81, 48 h) of 96%.

Turning to `COc1ccc(OCCN2CCC(N3CCNC3=O)CC2)cc1` [UCSD-0840477], the IC50 in data set [4] was greater than 50 µM; in data set [2] (setting [6]), 21.2 µM. Moreover, in data set [4], the inhibition at 2 µM came out at 38.5%. Moreover, in data set [1], the “HepG2 cytotoxicity 12pt dose response: Maximum inhibition (%)” value amounted to 42.1%. Besides, the Emax in data set [2] (HepG2-A16-CD81, 48 h) worked out at 62.9%.

As for `Cc1cccc(NC(=O)c2[nH]nc(C(C)C)c2Br)n1` [UCSD-0842406], in data set [4], the IC50 was greater than 50 µM and the inhibition at 2 µM was 17.4%. In data set [1], the “HepG2 cytotoxicity 12pt dose response: Maximum inhibition (%)” value is 40.5%. Further, the IC50 in data set [2] (setting [6]) was 0.0268 µM. Further, the maximal effect (Emax) in data set [2] (HepG2-A16-CD81, 48 h) was determined as 101%.

Take `Cc1ncsc1C(=O)NC1CCN(Cc2ccc(C(F)(F)F)cc2)CC1` [UCSD-0842554]: the IC50 in data set [4] was greater than 50 µM; in data set [2] (setting [6]), 14.2 µM. In data set [4], the inhibition at 2 µM is 9.14%. Also, in data set [1], the “HepG2 cytotoxicity 12pt dose response: Maximum inhibition (%)” value was found to be 41.9%. The compound further displayed an Emax in data set [2] (HepG2-A16-CD81, 48 h) of 87.4%.

As to `CC(=O)Nc1nc(C(=O)N2CCCC(n3cncn3)C2)cs1` (centres unmarked) [UCSD-0843277], in data set [4], the IC50 was greater than 50 µM and the inhibition at 2 µM is -7.07%. The “HepG2 cytotoxicity 12pt dose response: Maximum inhibition (%)” value in data set [1] is given as -5.65%. Besides, the IC50 in data set [2] (setting [6]) was 21.5 µM. In data set [2] (HepG2-A16-CD81, 48 h), this compound returned an Emax of 81.2%.

Turning to `CC(C)(C)c1nc(CN2CCCC(Cn3cncn3)C2)cs1` (centres unmarked) [UCSD-0846727], the IC50 in data set [4] and in data set [2] (setting [6]) was greater than 50 µM each time. Also, the inhibition at 2 µM in data set [4] was found to be 5.83%. In data set [1], the “HepG2 cytotoxicity 12pt dose response: Maximum inhibition (%)” value was -16.6%. The same compound returned an Emax in data set [2] (HepG2-A16-CD81, 48 h) of 24.9%.
